# Data as given in publication PMC7044277 (Nature Communications, 2020).
# Several values for one entry are separate records, joined by “and”; a condition that tells them apart may be missing. Equal entries are not always repeated.
# Tests used:
# Type in all cases: cell-based
# [1] = target: T1, 320 non-olfactory GPCRs (Homo sapiens, UniProt P46663)
# T1 construct: expressed in transfected cells; host or cells: HTLA cells
# [2] = target: 320 non-olfactory GPCRs (Homo sapiens, UniProt Q16581)
# [3] = target: T2, 320 non-olfactory GPCRs (Homo sapiens, UniProt Q86SQ6)
# T2 construct: expressed in transfected cells; host or cells: HTLA cells
# [4] = target: T3, 320 non-olfactory GPCRs (Homo sapiens, UniProt Q969V1); conditions: receptor MCHR2R; replicate values, Fig_4g
# T3 construct: expressed in transfected cells; host or cells: HTLA cells
# 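Wherever Fold of Basal is given: compound tested at 1 µM final concentration.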
# 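Wherever GPCRome agonism screen response is given: fold over basal response of each receptor without drug.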
# T3 sequence (Q969V1 whole entry): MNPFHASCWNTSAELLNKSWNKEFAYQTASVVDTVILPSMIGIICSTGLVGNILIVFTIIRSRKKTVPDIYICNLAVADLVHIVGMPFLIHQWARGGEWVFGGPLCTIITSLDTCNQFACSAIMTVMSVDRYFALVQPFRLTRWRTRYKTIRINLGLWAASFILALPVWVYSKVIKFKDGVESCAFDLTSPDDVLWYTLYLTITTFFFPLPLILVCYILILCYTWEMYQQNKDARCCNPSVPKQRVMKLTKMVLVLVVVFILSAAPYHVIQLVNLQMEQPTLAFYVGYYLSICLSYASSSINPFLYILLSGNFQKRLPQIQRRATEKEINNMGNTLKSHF
# Chain of 320 non-olfactory GPCRs (Homo sapiens, UniProt Q16581) (Q16581 whole entry): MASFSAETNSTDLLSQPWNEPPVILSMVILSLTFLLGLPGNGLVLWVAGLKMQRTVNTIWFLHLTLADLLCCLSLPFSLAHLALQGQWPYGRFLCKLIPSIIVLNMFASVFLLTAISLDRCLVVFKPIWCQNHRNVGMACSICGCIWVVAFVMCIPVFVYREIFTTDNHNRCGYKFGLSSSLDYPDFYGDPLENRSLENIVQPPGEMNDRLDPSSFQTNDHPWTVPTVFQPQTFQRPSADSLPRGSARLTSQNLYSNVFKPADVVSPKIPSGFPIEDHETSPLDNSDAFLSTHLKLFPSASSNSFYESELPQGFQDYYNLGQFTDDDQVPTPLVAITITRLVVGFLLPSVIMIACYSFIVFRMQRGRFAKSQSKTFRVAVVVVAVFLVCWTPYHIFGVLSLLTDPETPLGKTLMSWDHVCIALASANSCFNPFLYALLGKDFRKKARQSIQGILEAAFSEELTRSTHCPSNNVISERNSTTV
# T2 sequence (Q86SQ6 whole entry): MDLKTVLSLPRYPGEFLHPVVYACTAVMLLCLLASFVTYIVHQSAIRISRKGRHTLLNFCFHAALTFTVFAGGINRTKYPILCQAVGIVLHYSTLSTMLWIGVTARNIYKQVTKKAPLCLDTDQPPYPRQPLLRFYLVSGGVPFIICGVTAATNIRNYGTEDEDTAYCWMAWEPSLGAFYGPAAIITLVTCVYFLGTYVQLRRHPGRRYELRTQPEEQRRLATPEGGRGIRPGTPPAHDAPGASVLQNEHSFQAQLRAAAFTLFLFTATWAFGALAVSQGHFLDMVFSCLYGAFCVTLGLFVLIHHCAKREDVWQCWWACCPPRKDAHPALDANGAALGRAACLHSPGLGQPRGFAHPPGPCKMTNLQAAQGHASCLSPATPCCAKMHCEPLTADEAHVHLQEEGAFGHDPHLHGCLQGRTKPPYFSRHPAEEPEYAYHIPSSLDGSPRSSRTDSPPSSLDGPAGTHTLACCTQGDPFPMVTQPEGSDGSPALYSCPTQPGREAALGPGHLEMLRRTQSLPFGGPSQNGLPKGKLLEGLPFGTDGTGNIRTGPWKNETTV
# T1 sequence (P46663 whole entry): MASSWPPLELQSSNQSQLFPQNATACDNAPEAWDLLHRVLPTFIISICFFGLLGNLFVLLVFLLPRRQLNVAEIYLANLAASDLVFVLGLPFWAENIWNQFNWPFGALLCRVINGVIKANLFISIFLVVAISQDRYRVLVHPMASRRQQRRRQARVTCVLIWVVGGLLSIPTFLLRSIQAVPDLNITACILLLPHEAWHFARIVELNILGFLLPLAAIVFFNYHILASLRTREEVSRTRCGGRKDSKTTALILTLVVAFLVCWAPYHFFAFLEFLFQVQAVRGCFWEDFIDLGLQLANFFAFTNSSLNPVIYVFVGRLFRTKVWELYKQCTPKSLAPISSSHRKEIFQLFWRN
structure (smiles),measurement,setting,value
CCOc1cccc2cc(C(C)NCC3(O)CCCCC3)oc12 (stereo not shown) [O4LE6],Fold of Basal,[1],0.6703 and 0.866 and 0.6219 and 0.6427
same,Fold of Basal,[2],1.165 and 1.05 and 0.9669 and 0.8841
same,Fold of Basal,[3],0.9894 and 1.559 and 1.433 and 1.372
same,GPCRome agonism screen response,[4],1.156 and 0.4645 and 1.04 and 0.6466
